Laboratory results taken from the supplement of paper PMC10307832.

Columns and labels:
Assay in all cases: relative viability (nuclei count vs DMSO), 5 days (fraction); higher = more cells survive
AZD6482 + Pemetrexed = compound: Cc1cc([C@@H](C)Nc2ccccc2C(=O)O)c2nc(N3CCOCC3)cc(=O)n2c1 [AZD6482] + Nc1nc2[nH]cc(CCc3ccc(C(=O)N[C@@H](CCC(=O)O)C(=O)O)cc3)c2c(=O)[nH]1 [Pemetrexed] (partner 0.2 µM)
In short: (§1)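 Cells from lung cancer lines were seeded into 1536-well plates and, one day later, dosed by pin tool. Treatments were either a single drug or a fixed dose of an anchor drug with five library-drug doses (not always all listed) in √10 steps. After 5 days, nuclei were stained in a one-step fixation (final 0.05% Triton X-100, 1% formaldehyde, 1 ug/ml Hoechst) and counted on 4× images, and relative viability is the treated-to-vehicle nuclei ratio, as the median of duplicate plates.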

[1] = compound: COc1cc2nc(N3CCCN(C)CC3)nc(NC3CCN(Cc4ccccc4)CC3)c2cc1OC + COc1cccc2cc(-c3nc([C@H]4CC[C@H](C(=O)O)CC4)n4ncnc(N)c34)[nH]c12 [OSI-027] (partner 0.5 µM)
In short: as §1

AZD6482 = compound: Cc1cc([C@@H](C)Nc2ccccc2C(=O)O)c2nc(N3CCOCC3)cc(=O)n2c1 [AZD6482]
In short: (§2)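 Vehicle-anchored 1536-well plates of lung cancer cell lines, held overnight at 37 °C, were pinned with five library-drug doses (not always all listed) spaced by √10. No medium change followed over the next 5 days, after which the cells were fixed, permeabilised and Hoechst-stained together and imaged at 4×. Nuclei were counted with MetaXpress, and viability is treated-well nuclei over vehicle-well nuclei, taken as a median across plates. Plates passed with control CV below 25% and at least one doubling.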

[2] = compound: COc1cc2nc(N3CCCN(C)CC3)nc(NC3CCN(Cc4ccccc4)CC3)c2cc1OC
In short: as §2

| Cell Line | relative viability (AZD6482 + Pemetrexed; first compound 0.08 µM) | relative viability (AZD6482 + Pemetrexed; first compound 0.253 µM) | relative viability (AZD6482 + Pemetrexed; first compound 0.8 µM) | relative viability (AZD6482 + Pemetrexed; first compound 2.53 µM) | relative viability (AZD6482 + Pemetrexed; first compound 8 µM) | relative viability ([1]; first compound 0.2 µM) | relative viability ([1]; first compound 0.6325 µM) | relative viability ([1]; first compound 2 µM) | relative viability ([1]; first compound 6.325 µM) | relative viability (AZD6482; 0.08 µM) | relative viability (AZD6482; 0.253 µM) | relative viability (AZD6482; 0.8 µM) | relative viability (AZD6482; 2.53 µM) | relative viability (AZD6482; 8 µM) | relative viability ([2]; 0.2 µM) | relative viability ([2]; 0.6325 µM) | relative viability ([2]; 2 µM) | relative viability ([2]; 6.325 µM) |
| --- | --- | --- | --- | --- | --- | --- | --- | --- | --- | --- | --- | --- | --- | --- | --- | --- | --- | --- |
| SK-MES-1 | 0.84 | 0.974 | 0.876 | 0.394 | 0.532 | 0.61 | 0.56 | 0.536 | 0.218 | 0.794 | 0.946 | 0.709 | 0.405 | 0.444 | 1.01 | 1.01 | 1.03 | 0.791 |
| SW 900 | 0.479 | 0.476 | 0.501 | 0.358 | 0.384 | 0.445 | 0.539 | 0.546 | 0.409 | 0.675 | 0.683 | 0.691 | 0.486 | 0.778 | 0.81 | 1.03 | 0.89 | 0.752 |
| SW 1573 | 0.881 | 0.822 | 0.827 | 0.723 | 0.75 | 0.564 | 0.787 | 0.551 | 0.254 | 0.916 | 0.908 | 0.818 | 0.677 | 0.674 | 0.906 | 0.983 | 1.02 | 0.651 |
